Drawing on patent US7781454B2 (priority 2006, dated 2010), this text covers IC50 and IC95 for nine compounds.

In assay [1] the target is T1, mutant HIV reverse transcriptase (Y181C mutation) (Human immunodeficiency virus type 1 group M subtype B, UniProt P04585, Y768C).
T1 construct: against mutant HIV reverse transcriptase; made in house
Briefly: ECL assay for inhibition of mutant HIV reverse transcriptase (Y181C). It is filed as biochemical. The protocol:
(§1) 100 μL reaction mixtures were initiated with a combination of primer-template substrate ([…]) and dNTPs (0.6 μM dNTPs, 1.25 μM BrdUTP). The heterodimeric nucleic acid substrate was generated by annealing the DNA primer pD500 (described in Shaw-Reid et al., J. Biol. Chem., 278: 2777-2780; obtained from Integrated DNA Technologies) to t500, a 500 nucleotide RNA template created by in vitro transcription (see Shaw-Reid et al., J. Biol. Chem., 278: 2777-2780). After 1 hour incubation at 37° C., reactions were quenched by 10 μL of 1 N NaOH. Microtiter plates were incubated for an additional 30 minutes at room temperature and then neutralized with 10 μL of 1 N HCl. A mixture of detection buffer containing ruthenylated anti-BrdU antibody and streptavidin coated magnetic beads were added to the plate and incubated at room temperature for 1.5 hours prior to quantification via electrochemiluminescence instrument.
(§2) Analogous assays were conducted substituting mutant HIV strains to determine the in vitro inhibition of compounds of the present invention against mutant HIV reverse transcriptase. In one strain the reverse transcriptase has the Y181C mutation and in the other strain the reverse transcriptase has the K103N mutation. The mutations were generated with the QUIKCHANGE site-directed mutagenesis kit (Stratagene).

The test system of assay [2] is HIV strain containing the Y181C mutation. Description: Spread assay: inhibition of HIV replication (Y181C mutant strain). It is filed as cell-based. The note with it: Human immunodeficiency virus 1, read-out: Spread (Y181C) CIC95. The protocol: (§3) Assays for the inhibition of acute HIV-1 infection of T-lymphoid cells (alternatively referred to herein as the “spread assay”) were conducted in accordance with Vacca, J. P. et al., Proc. Natl. Acad. Sci. USA 1994, 91: 4096. The assays tested for inhibition of wild type HIV-1 and of HIV strains containing the Y181C or K103N mutation. […] The compounds of Examples 1 to 4 had CIC95 values of less than 10 micromolar in the assay employing the K103N mutant strain. […] Table C also reports the CIC95 values of the compounds of Examples 1-7, 9-13 and 15-29 obtained in the assays employing the Y181C mutant strain and the K103N mutant strain.

Assay [3] deals with T2, mutant HIV reverse transcriptase (K103N mutation) (Human immunodeficiency virus type 1 group M subtype B, UniProt P04585, K690N).
T2 construct: against mutant HIV reverse transcriptase; made in house
Briefly: ECL assay for inhibition of mutant HIV reverse transcriptase (K103N). It is filed as biochemical. The method, then:
as §1, §2

Assay [4] has as its system wild type HIV-1. Description: Spread assay: inhibition of acute HIV-1 infection of T-lymphoid cells (WT). It is filed as cell-based. The conditions noted are these: Human immunodeficiency virus 1, T-lymphoid; wild-type strain; 10% FBS; read-out: Spread (WT) CIC95. The protocol: as §3
Assay [5] addresses HIV-1 RT enzyme (wild-type) (Human immunodeficiency virus type 1 group M subtype B, UniProt P04585). Description: ECL assay for inhibition of HIV reverse transcriptase (WT). It is filed as biochemical. The protocol: as §1
Assay [6] deals with HIV strain containing the K103N mutation. Briefly: Spread assay: inhibition of HIV replication (K103N mutant strain). The note with it: Human immunodeficiency virus 1, read-out: Spread (K103N) CIC95. It is filed as cell-based. The protocol: as §3
Setting [7] is: Y181C mutant RT, read-out: ECL Assay (Y181C) IC50.
The mark [8] stands for this setting: K103N mutant RT, read-out: ECL Assay (K103N) IC50.

Where a name gives a salt, the structure may show the parent alone. Read-outs that look alike come from different tables or passages of the source.

In the case of `O=Cc1cc(Cl)cc(Oc2c(Cl)ccc3c2nnn3Cc2n[nH]c3ncccc23)c1` [Example 18, 3-chloro-5-{[5-chloro-1-(1H-pyrazolo[3,4-b]pyridin-3-ylmethyl)-1H-1,2,3-benzotriazol-4-yl]oxy}benzaldehyde], the IC50 (commonly the concentration that gives 50% inhibition) in assay [1] (setting [7]) was found to be 3.7 nM; in assay [3] (setting [8]) it was 2.6 nM; in assay [5] it was 2.1 nM. Further, the IC95 worked out at 825 nM in assay [2], 55 nM in assay [4] and 154 nM in assay [6].
As to `NCc1cc(Cl)cc(Oc2c(Cl)ccc3c2nnn3Cc2n[nH]c3ncccc23)c1` [Example 17, (3-chloro-5-{[5-chloro-1-(1H-pyrazolo[3,4-b]pyridin-3-ylmethyl)-1H-1,2,3-benzotriazol-4-yl]oxy}phenyl)methanaminium trifluoroacetate], the IC50 is 74 nM in assay [1], 79 nM in assay [3] and 38 nM in assay [5]. Moreover, the IC95 was above 833 nM in assay [2], 60 nM in assay [4] and 262 nM in assay [6].
With `N#Cc1cc(Cl)cc(Oc2c(Cl)ccc3c2cnn3Cc2n[nH]c3nc(N)ccc23)c1` [Example 3, 3-{[5-Chloro-4-(3-chloro-5-cyanophenoxy)-1H-indazol-1-yl]methyl}-1H-pyrazolo[3,4-b]pyridin-6-aminium chloride], the results for the IC50 in assay [1] (setting [7]), in assay [3] (setting [8]) and in assay [5] were 1.9 nM, 1.7 nM and 0.6 nM, respectively. For the same compound, the results for the IC95 in assay [2], in assay [4] and in assay [6] were 77 nM, 9 nM and 23 nM, respectively.
In the case of `N#Cc1cc(Cl)cc(Oc2c(Cl)ccc3c2ncn3Cc2n[nH]c3ncccc23)c1` [Example 7, 3-chloro-5-{[5-chloro-1-(1H-pyrazolo[3,4-b]pyridin-3-ylmethyl)-1H-benzimidazol-4-yl]oxy}benzonitrile dihydrochloride], the figures for the IC50 in assay [1], in assay [3] and in assay [5] were 1.7 nM, 4.1 nM and 0.92 nM, respectively. The IC95 in assay [2] came out at 225 nM; in assay [4], 28 nM; in assay [6] it was 39 nM.
For the compound `N#Cc1cc(Cl)cc(Oc2c(Cl)ccc3c2nnn3Cc2n[nH]c3nc(N)ccc23)c1` [Example 6, 3-({1-[(6-amino-1H-pyrazolo[3,4-b]pyridin-3-yl)methyl]-5-chloro-1H-1,2,3-benzotriazol-4-yl}oxy)-5-chlorobenzonitrile], the IC50 in assay [1] (setting [7]) was 0.82 nM; in assay [3] (setting [8]), 0.53 nM; in assay [5] it was 0.4 nM. Also, the figures for the IC95 in assay [2], in assay [4] and in assay [6] were 25 nM, 3 nM and below 4 nM, respectively.
Take `N#Cc1cc(Cl)cc(Oc2c(Cl)ccc3c2nnn3CC(=O)Nc2ccccc2Cl)c1` [Example 12, 2-[5-chloro-4-(3-chloro-5-cyanophenoxy)-1H-1,2,3-benzotriazol-1-yl]-N-(2-chlorophenyl)acetamide]: the IC50 in assay [1] (setting [7]) is 0.89 nM; in assay [3] (setting [8]), 0.94 nM; in assay [5] it was 0.45 nM. The IC95 in assay [2] is 137 nM; in assay [4], 23 nM; in assay [6], 41 nM.
On to `N#Cc1cc(Cl)cc(Oc2c(Cl)ccc3c2nnn3Cc2n[nH]c3ncccc23)c1` [Example 4, 3-chloro-5-{[5-chloro-1-(1H-pyrazolo[3,4-b]pyridin-3-ylmethyl)-1H-1,2,3-benzotriazol-4-yl]oxy}benzonitrile], for which the values for the IC50 in assay [1] (setting [7]), in assay [3] (setting [8]) and in assay [5] were 0.44 nM, 0.41 nM and 0.24 nM, respectively. The IC95 was determined as 24 nM in assay [2], 4 nM in assay [4] and 5 nM in assay [6].
For `N#Cc1cc(Cl)cc(Oc2c(Cl)ccc3c2ncn3Cc2n[nH]c3nc(N)ccc23)c1` [Example 10, 3-({1-[(6-amino-1H-pyrazolo[3,4-b]pyridin-3-yl)methyl]-5-chloro-1H-benzimidazol-4-yl}oxy)-5-chlorobenzonitrile bis(trifluoroacetate)], the IC50 in assay [1] was 13 nM; in assay [3] it was 13 nM; in assay [5], 1.5 nM. For the same compound, the IC95 stood at 468 nM in assay [2], 21 nM in assay [4] and 85 nM in assay [6].
As to `N#Cc1cc(Cl)cc(Oc2c(Cl)ccc3c2nnn3CC(=O)Nc2ccncc2C(F)(F)F)c1` [Example 13, 2-[5-chloro-4-(3-chloro-5-cyanophenoxy)-1H-1,2,3-benzotriazol-1-yl]-N-[3-(trifluoromethyl)pyridin-4-yl]acetamide], the IC50 in assay [1] (setting [7]) turned out to be 2.4 nM; in assay [3] (setting [8]) it was 3 nM; in assay [5], 1 nM. Moreover, the IC95 in assay [2] amounted to 382 nM; in assay [4], 45 nM; in assay [6] it was 151 nM.
